Test results as given in patent publication US20040018941A1, “Fused-benzene derivatives of thiouracil, herbicidal and desiccant compositions contaning them” (ISHIHARA SANGYO KAISHA, LTD., priority 2002, published 2004).

Key:
Assay type in all cases: in vivo
Conditions in all cases: rating 0-100 (0 no damage, 100 complete death), 14 days after application
[1] = system: redroot pigweed (Amaranthus retroflexus, AMARE); assay: Pre-emerge herbicidal activity, greenhouse screen, AMARE
Description: (§1) A standard greenhouse herbicide activity screening system was used to evaluate the herbicidal efficacy and crop safety of these test compounds. Seven broadleaf weed species including redroot pigweed (Amaranthus retroflexus, AMARE), velvetleaf (Abutilon theophrasti, ABUTH), sicklepod (Cassia obtusifolia, CASOB), ivyleaf morningglory (Ipomoea hederacea, IPOHE), lambsquarters (Chenopodium album, CHEAL), common ragweed (Ambrosia artemisiifolia L., AMBEL), and cocklebur (Xanthium strumarium, XANST) were used as test species. Four grass weed species including green foxtail (Setaria viridis, SETVI), barnyardgrass (Echinochloa crus-galli, ECHCG), johnsongrass (Sorghum halepense, SORHA), and large crabgrass (Digitaria sanguinalis, DIGSA) were also used. In addition, three crop species, field corn (Zea mays L., var. Dekalb 527, CORN), soybean (Glycine max L., var. Pella 86, SOY), and upland rice (Oryza sp., var. Tebonnet, RICE) were included.
(§2) All plants were grown in 10 cm square plastic pots which were filled with a sandy loam soil mix. For pre-emerge tests, seeds were planted one day prior to application of the test compounds. For post-emerge tests, seeds were planted 8-21 days prior to the test to allow emergence and good foliage development prior to application of the test substances. At the time of the post-emerge application, plants of all species were usually at the 2-3 leaf stage of development.
(§3) All test compounds were dissolved in acetone and applied to the test units in a volume of 187 l/ha. Test materials were applied at rates ranging from 15 g ai/ha to 1000 g ai/ha using a track sprayer equipped with a TJ8001 E even flow flat fan spray nozzle. Plants were arranged on a shelf so that the top of the canopy (post-emerge) or top of the soil surface (pre-emerge) was 40-45 cm below the nozzle. Pressurized air was used to force the test solution through the nozzle as it was mechanically advanced over the top of all test plants/pots. This application simulates a typical commercial field herbicide application.
(§4) In the post-emerge test, a commercial non-ionic surfactant was also included (0.25% v/v) to enhance wetting of the leaf surfaces of target plants. Immediately after application, test units of the pre-emerge applications were watered at the soil surface to incorporate the test materials.
(§5) At 14 days after application of the test materials, phytotoxicity ratings were recorded. A rating scale of 0-100 was used as previously described in Research Methods in Weed Science, 2nd edition, B. Truelove, Ed., Southern Weed Science Society, Auburn University, Auburn, Ala., 1977. Briefly, “0” corresponds to no damage and “100” corresponds to complete death of all plants in the test unit. This scale was used both to determine efficacy against weed species and damage to crop species. Herbicide activity data for various compounds of this invention, which are shown by compound No. in Tables 1-7, are shown in Tables 8 and 9.

[2] = system: velvetleaf (Abutilon theophrasti, ABUTH); assay: Pre-emerge herbicidal activity, greenhouse screen, ABUTH
Description: as §1, §2, §3, §4, §5

[3] = system: sicklepod (Cassia obtusifolia, CASOB); assay: Pre-emerge herbicidal activity, greenhouse screen, CASOB
Description: as §1, §2, §3, §4, §5

[4] = system: ivyleaf morningglory (Ipomoea hederacea, IPOHE); assay: Pre-emerge herbicidal activity, greenhouse screen, IPOHE
Description: as §1, §2, §3, §4, §5

[5] = system: lambsquarters (Chenopodium album, CHEAL); assay: Pre-emerge herbicidal activity, greenhouse screen, CHEAL
Description: as §1, §2, §3, §4, §5

[6] = system: common ragweed (Ambrosia artemisiifolia L., AMBEL); assay: Pre-emerge herbicidal activity, greenhouse screen, AMBEL
Description: as §1, §2, §3, §4, §5

[7] = system: green foxtail (Setaria viridis, SETVI); assay: Pre-emerge herbicidal activity, greenhouse screen, SETVI
Description: as §1, §2, §3, §4, §5

[8] = system: barnyardgrass (Echinochloa crus-galli, ECHCG); assay: Pre-emerge herbicidal activity, greenhouse screen, ECHCG
Description: as §1, §2, §3, §4, §5

[9] = system: johnsongrass (Sorghum halepense, SORHA); assay: Pre-emerge herbicidal activity, greenhouse screen, SORHA
Description: as §1, §2, §3, §4, §5

[10] = system: large crabgrass (Digitaria sanguinalis, DIGSA); assay: Pre-emerge herbicidal activity, greenhouse screen, DIGSA
Description: as §1, §2, §3, §4, §5

[11] = system: field corn (Zea mays L., var. Dekalb 527, CORN); assay: Pre-emerge crop damage, greenhouse screen, CORN
Description: as §1, §2, §3, §4, §5

[12] = system: soybean (Glycine max L., var. Pella 86, SOY); assay: Pre-emerge crop damage, greenhouse screen, SOY
Description: as §1, §2, §3, §4, §5

[13] = system: upland rice (Oryza sp., var. Tebonnet, RICE); assay: Pre-emerge crop damage, greenhouse screen, RICE
Description: as §1, §2, §3, §4, §5

[14] = system: redroot pigweed (Amaranthus retroflexus, AMARE); assay: Post-emerge herbicidal activity, greenhouse screen, AMARE
Description: as §1, §2, §3, §4, §5

[15] = system: velvetleaf (Abutilon theophrasti, ABUTH); assay: Post-emerge herbicidal activity, greenhouse screen, ABUTH
Description: as §1, §2, §3, §4, §5

[16] = system: sicklepod (Cassia obtusifolia, CASOB); assay: Post-emerge herbicidal activity, greenhouse screen, CASOB
Description: as §1, §2, §3, §4, §5

[17] = system: ivyleaf morningglory (Ipomoea hederacea, IPOHE); assay: Post-emerge herbicidal activity, greenhouse screen, IPOHE
Description: as §1, §2, §3, §4, §5

[18] = system: lambsquarters (Chenopodium album, CHEAL); assay: Post-emerge herbicidal activity, greenhouse screen, CHEAL
Description: as §1, §2, §3, §4, §5

[19] = system: common ragweed (Ambrosia artemisiifolia L., AMBEL); assay: Post-emerge herbicidal activity, greenhouse screen, AMBEL
Description: as §1, §2, §3, §4, §5

[20] = system: green foxtail (Setaria viridis, SETVI); assay: Post-emerge herbicidal activity, greenhouse screen, SETVI
Description: as §1, §2, §3, §4, §5

[21] = system: barnyardgrass (Echinochloa crus-galli, ECHCG); assay: Post-emerge herbicidal activity, greenhouse screen, ECHCG
Description: as §1, §2, §3, §4, §5

[22] = system: johnsongrass (Sorghum halepense, SORHA); assay: Post-emerge herbicidal activity, greenhouse screen, SORHA
Description: as §1, §2, §3, §4, §5

[23] = system: large crabgrass (Digitaria sanguinalis, DIGSA); assay: Post-emerge herbicidal activity, greenhouse screen, DIGSA
Description: as §1, §2, §3, §4, §5

[24] = system: field corn (Zea mays L., var. Dekalb 527, CORN); assay: Post-emerge crop damage, greenhouse screen, CORN
Description: as §1, §2, §3, §4, §5

[25] = system: soybean (Glycine max L., var. Pella 86, SOY); assay: Post-emerge crop damage, greenhouse screen, SOY
Description: as §1, §2, §3, §4, §5

[26] = system: upland rice (Oryza sp., var. Tebonnet, RICE); assay: Post-emerge crop damage, greenhouse screen, RICE
Description: as §1, §2, §3, §4, §5

In the case of `Cc1nc2c(Cl)cc(F)c(-n3c(=O)cc(C(F)(F)F)n(C)c3=S)c2o1` [Compound 1-2], the “Pre-emerge Herbicidal Activity AMARE” value ([1]; 63 g ai/ha) is reported as 100, the “Pre-emerge Herbicidal Activity AMARE” value ([1]; 250 g ai/ha) is reported as 100 and the “Pre-emerge Herbicidal Activity ABUTH” value ([2]; 63 g ai/ha) is reported as 100. For the same compound, the “Pre-emerge Herbicidal Activity ABUTH” value ([2]; 250 g ai/ha) was 100, the “Pre-emerge Herbicidal Activity CASOB” value ([3]; 63 g ai/ha) was 100 and the “Pre-emerge Herbicidal Activity CASOB” value ([3]; 250 g ai/ha) was 100. The “Pre-emerge Herbicidal Activity IPOHE” value ([4]; 63 g ai/ha) was 100, the “Pre-emerge Herbicidal Activity IPOHE” value ([4]; 250 g ai/ha) was 100 and the “Pre-emerge Herbicidal Activity CHEAL” value ([5]; 63 g ai/ha) was 100. The “Pre-emerge Herbicidal Activity CHEAL” value ([5]; 250 g ai/ha) was 100, the “Pre-emerge Herbicidal Activity AMBEL” value ([6]; 63 g ai/ha) was 100 and the “Pre-emerge Herbicidal Activity AMBEL” value ([6]; 250 g ai/ha) was 100. For the same compound, the “Pre-emerge Herbicidal Activity SETVI” value ([7]; 63 g ai/ha) was 100, the “Pre-emerge Herbicidal Activity SETVI” value ([7]; 250 g ai/ha) was 100 and the “Pre-emerge Herbicidal Activity ECHCG” value ([8]; 63 g ai/ha) was 100. The “Pre-emerge Herbicidal Activity ECHCG” value ([8]; 250 g ai/ha) was 100, the “Pre-emerge Herbicidal Activity SORHA” value ([9]; 63 g ai/ha) was 100 and the “Pre-emerge Herbicidal Activity SORHA” value ([9]; 250 g ai/ha) was 100. For the same compound, the “Pre-emerge Herbicidal Activity DIGSA” value ([10]; 63 g ai/ha) was 100, the “Pre-emerge Herbicidal Activity DIGSA” value ([10]; 250 g ai/ha) was 100 and the “Pre-emerge Herbicidal Activity CORN (crop damage)” value ([11]; 63 g ai/ha) was 100. For the same compound, the “Pre-emerge Herbicidal Activity CORN (crop damage)” value ([11]; 250 g ai/ha) was 100, the “Pre-emerge Herbicidal Activity SOY (crop damage)” value ([12]; 63 g ai/ha) was 100 and the “Pre-emerge Herbicidal Activity SOY (crop damage)” value ([12]; 250 g ai/ha) was 100. The “Pre-emerge Herbicidal Activity RICE (crop damage)” value ([13]; 63 g ai/ha) was 99, the “Pre-emerge Herbicidal Activity RICE (crop damage)” value ([13]; 250 g ai/ha) was 100 and the “Post-emerge Herbicidal Activity AMARE” value ([14]; 63 g ai/ha) was 100. The “Post-emerge Herbicidal Activity AMARE” value ([14]; 250 g ai/ha) was 100, the “Post-emerge Herbicidal Activity ABUTH” value ([15]; 63 g ai/ha) was 100 and the “Post-emerge Herbicidal Activity ABUTH” value ([15]; 250 g ai/ha) was 100. The “Post-emerge Herbicidal Activity CASOB” value ([16]; 63 g ai/ha) was 100, the “Post-emerge Herbicidal Activity CASOB” value ([16]; 250 g ai/ha) was 100 and the “Post-emerge Herbicidal Activity IPOHE” value ([17]; 63 g ai/ha) was 100. The “Post-emerge Herbicidal Activity IPOHE” value ([17]; 250 g ai/ha) was 100, the “Post-emerge Herbicidal Activity CHEAL” value ([18]; 63 g ai/ha) was 100 and the “Post-emerge Herbicidal Activity CHEAL” value ([18]; 250 g ai/ha) was 100. For the same compound, the “Post-emerge Herbicidal Activity AMBEL” value ([19]; 63 g ai/ha) was 100, the “Post-emerge Herbicidal Activity AMBEL” value ([19]; 250 g ai/ha) was 100 and the “Post-emerge Herbicidal Activity SETVI” value ([20]; 63 g ai/ha) was 100. The “Post-emerge Herbicidal Activity SETVI” value ([20]; 250 g ai/ha) was 100, the “Post-emerge Herbicidal Activity ECHCG” value ([21]; 63 g ai/ha) was 100 and the “Post-emerge Herbicidal Activity ECHCG” value ([21]; 250 g ai/ha) was 100. The “Post-emerge Herbicidal Activity SORHA” value ([22]; 63 g ai/ha) was 100, the “Post-emerge Herbicidal Activity SORHA” value ([22]; 250 g ai/ha) was 100 and the “Post-emerge Herbicidal Activity DIGSA” value ([23]; 63 g ai/ha) was 99. The “Post-emerge Herbicidal Activity DIGSA” value ([23]; 250 g ai/ha) was 100, the “Post-emerge Herbicidal Activity CORN (crop damage)” value ([24]; 63 g ai/ha) was 25 and the “Post-emerge Herbicidal Activity CORN (crop damage)” value ([24]; 250 g ai/ha) was 35. For the same compound, the “Post-emerge Herbicidal Activity SOY (crop damage)” value ([25]; 63 g ai/ha) was 100, the “Post-emerge Herbicidal Activity SOY (crop damage)” value ([25]; 250 g ai/ha) was 100 and the “Post-emerge Herbicidal Activity RICE (crop damage)” value ([26]; 63 g ai/ha) was 75. The “Post-emerge Herbicidal Activity RICE (crop damage)” value ([26]; 250 g ai/ha) was 80.
